# Experiments:
# [1] = system: RCC reactive SAUJ T-cell clone; assay: ELISA of IFN-gamma production by RCC reactive CTL co-cultured with peptide-pulsed COS7-A11 cells; format: cell-based, human
# Experimental: COS7-A11 cells were pulsed with varying concentrations of each peptide then screened for their ability to induce IFN-gamma production by RCC reactive CTL. The 10 mer Pep-A104-K133 (ATFLGSLTWK) (SEQ ID NO: 1) induced dose dependent IFN-gamma production first evident in the 1 nM concentration range consistent with this peptide being the antigenic HLA-A11 restricted antigen recognized by the RCC reactive SAUJ T-cell clone.
# Cultured T-cell lines or T cell clones were added to target cells in round-bottom 96-well plates. After 24 hours co culture at 37° C., 50 μL of supernatants was collected to measure IFN-g or GM-CSF secretion by ELISA (ENDOGEN, Woburn, Mass.) in duplicate assays. The concentration of reagents and the ELISA procedure recommended by ENDOGEN was followed without deviation. Absorbance was detected at 450 nm using an ELISA reader (VICTOR3 Multilabel counter; Perkin Elmer, Wellesley, Mass.) and data were calculated based on the standard curve generated from commercial recombinant human IFN-g or GM-CSF standards (ENDOGEN).
# A total of 8 peptides (three 9-mers and five 10-mers) from the common sequence of CT-RCC 8 and CT-RCC 9 were synthesized and purchased from Genemed Synthesis, Inc. The identity and purity of each of the peptides were confirmed by mass spectrometer and high-performance liquid chromatography analysis. […]
# HLA A-11 = assay: Binding of epitope to HLA A-11; set-up: species or system human; conditions: compared with the other epitopes
sequence,measurement,setting,value
"ATFLGSLTWK [Pep-A104-K133, HLA-A11-restricted 10-mer peptide from the common region of CT-RCC 8 and CT-RCC 9]",concentration range at which dose dependent IFN-gamma production is first evident,"[1]; COS7-A11 cells pulsed with varying peptide concentrations (0.1 to 10000 nM), SAUJ-CTL clone BZ-4",~1 nM
same,level of IFN-γ secretion by human T cells,[1]; compared with the other epitopes,highest level of IFN-γ secretion
same,level of binding the HLA A-11,HLA A-11,highest level of binding

# — US10557118B2, “Compositions and methods for prevention or treatment of neoplastic disease in a mammalian subject” (The Government of the USA, as represented by the Secretary, …, priority 2006, dated 2020)
